Reference: patent publication US6001832A, “[1,2,4]triazolo[4,3-a]quinoxalinone derivatives, their preparation and use” (Novo Nordiskals, priority 1994, dated 1999)

Experiments:
AMPA type receptors = assay: 3H-AMPA Binding (Test 1); conditions: displacement of 50% of the specific binding of 3H-AMPA (5 nM); rat cerebral cortical membrane homogenate, 0° C., 30 min, pH 7.1
Description: (§1) The pharmacological properties of the compounds of the present invention can be illustrated by determining their capability for displacing radioactively labelled 2-amino-3-hydroxy-5-methyl-4-isoxazolepropionic acid (AMPA) from the AMPA type receptors.
The displacement activity of the compounds may be shown by determining the IC50 value which represents the concentration (μM) which causes a displacement of 50% of the specific binding of ^3 H-AMPA.
^3 H-AMPA Binding (Test 1)
500 μl of thawed rat cerebral cortical membrane homogenate in Tris-HCl (30 mM), CaCl2 (2.5 mM) and KSCN (100 mM) pH 7.1 were incubated at 0° C. for 30 min. with 25 μl ^3 H-AMPA (5 nM final concentration) and the test compound and buffer. Nonspecific binding was determined by incubation with L-glutamic acid (600 μM final concentration). The binding reaction was terminated by adding 5 ml of ice-cold buffer followed by filtration through Whatman GF/C glass fibre filters and 2×5 ml wash with ice-cold buffer. Bound radioactivity was measured by scintillation counting. IC50 was determined by Hill analysis of at least four concentrations of test compound.

[1] = system: quisqualic acid stimulated spreading depression in chicken retina; assay: Spreading Depression (Test 2): quisqualic acid stimulated spreading depression in chicken retina; assay type: cell-based; conditions: Gallus gallus, 0.25 h; 50% maximal inhibition of quisqualate (1 μg/ml) stimulated spreading depression in chicken retina; 15 min incubation with test compound, 26° C.
Description: as §1
The antagonism is measured by determining the IC50 value which represents the concentration which produces a 50% maximal inhibition of quisqualic acid stimulated spreading depression in chicken retina.
Spreading Depression (Test 2)
Chicks (3-10 days old) were decapitated, the eyes enucleated and sectioned along the equatorial plane. […]
The eyes were initially incubated in normal P.S.S. for 15-30 min. and then transferred to P.S.S. containing quisqualate (1 μg/ml). […] The time taken for an S.D. to start in each eye was measured.
After a further 15 min. of incubation in normal P.S.S. the eyes were transferred to normal P.S.S. containing the test compound and incubated for 15 min. […] The time taken for an S.D. to start in each eye was measured again. The eyes were then placed back in normal P.S.S. and after 15 min. the time taken for S.D. to start was measured again, in order to assess the degree of recovery from any drug effects. […]

IC50 (AMPA type receptors): 390 nM
IC50 [1]: 400 nM
SMILES: Cc1cn(-c2cc3c(cc2C(F)(F)F)[nH]c(=O)c2nnc(CP(=O)(O)O)n23)c(-c2ccccc2)n1 [Example 2, 8-(4-Methyl-2-phenyl-1H-imidazol-1-yl)-1-phosphonomethyl-7-trifluoromethyl[1,2,4]triazolo[4,3-a]quinoxalin-4(5H)-one]
